Drawing on a melting point compilation (Tetko et al.; mined from patent text by program, amines drawn as free bases though some values may be those of a salt), this text covers melting point for 88 molecules.

Structures are written as SMILES.

The term melting point denotes the temperature, or range, at which the solid turns liquid.

Take `C#CCN1C(=O)COc2cc(F)c(N3C(=O)C4C5CC5CN4C3=O)cc21` (stereo not drawn): the melting point lay within 217 to 219 °C.

Consider `CC(C)C(=O)C(=Cc1ccccc1)C(=O)Nc1ccccc1`, for which the melting point lay within 144 to 154 °C.

Take `CCCCCCC=CCC1CC(=O)N(c2cc(Cc3n[nH]c(=O)c4ccccc34)ccc2F)C1=O` (stereo not drawn): the melting point lay within 146 to 149 °C.

In the case of `CC(C)[C@]1(CO)CCC(C)(C)C(=O)O1`, the melting point lay in the range of 178 to 181 °C.

Molecule `S=C(CCC(c1ccccc1)(c1ccccc1)c1ccccc1)Oc1c(Cl)c(Cl)c(Cl)c(Cl)c1Cl` returned a melting point of 154 to 156 °C.

Consider `CC1(C)CCC(C)(C)c2cc(N)ccc21`, for which the melting point lay within 63 to 65 °C.

For `CCOC(=O)c1sc(-c2ccc(Cl)cc2Cl)nc1C`, the melting point was found to be 100 °C.

Molecule `COc1cc(C(=O)N2Cc3cccn3Cc3ccccc32)ccc1N` came in with a melting point of 184 to 185 °C.

`CNC(=O)c1ccc(C(=O)OC)cc1[N+](=O)[O-]` gave a melting point of 155 °C.

`COc1cc2ccc(-c3ccc(C(C)C)cc3)cc2oc1=O` yielded a melting point of 127 °C.

Regarding `COC(=O)c1cccc(CN2CCOc3ccc(N)cc32)c1`, the melting point fell in the range of 167 to 171 °C.

Consider `NCCc1ccc(C(=O)CCC(=O)O)cc1`, for which the melting point was 234 to 235 °C.

As for `N#CC(=NNc1ccc(C(=O)O)cc1)C(N)=C(C#N)C#N`, the melting point was above 300 °C.

With `COC(=O)c1cc(Br)c(C#N)s1`, the melting point fell in the range of 102 to 103 °C.

Regarding `CCOC(=O)c1cc2ccc3c(c2cc1OCC)OC(n1cccc1)=C(C#N)C3c1cccc([N+](=O)[O-])c1` (stereo not drawn), the melting point was 202 to 203 °C.

In turn, `CCOC(=O)C(C)=NNc1ccc2[nH]c(=O)[nH]c2c1` gave a melting point of 220 °C.

`CCc1cc(O)nc(C)n1` showed a melting point of 118 to 119 °C.

The molecule `CC12CCC(OC(=O)COc3ccccc3)CC1=CCC1C2CCC2(C)C(=NO)CCC12` (stereo not drawn) showed a melting point of 118 to 122 °C.

Molecule `Cc1cn(-c2cc(NC(=O)c3ccc(C)c(Nc4nccc(-c5cccnc5)n4)c3)cc(C(F)(F)F)c2)cn1` showed a melting point of 235 to 236 °C.

Consider `NNC(=O)c1nc(CS(=O)(=O)c2ccc(Cl)cc2)no1`, for which the melting point is 177 °C.

In turn, `CC(c1ccc(Cl)cc1)N(O)C(N)=O` (stereo not drawn) showed a melting point of 125 to 128 °C.

As to `COc1ccc(C(=O)Nc2c(Cl)cncc2Cl)c2c1oc1ccc(NC(=O)NCC(=O)O)cc12`, the melting point was above 250 °C.

`CC(CO)c1ccc2nc(-c3ccccc3)oc2c1` (stereo not drawn) displayed a melting point of 98 °C.

`CC(=O)OC(C)c1cc2c(s1)C(=O)c1sccc1C2=O` (stereo not drawn) returned a melting point of 165 to 166 °C.

Regarding `CCn1ncc2c(-c3cncc(C)c3)c(C(=O)NCc3ccc(OC)cc3)c(-c3ccccc3)nc21`, the melting point was 203 to 204 °C.

`COc1cc(N2CCN(C[C@@H](O)CO)CC2)ccc1Nc1ncc2ccc(-c3cc(Cl)ccc3OC)n2n1` displayed a melting point of 101 to 104 °C.

Regarding `O=C(OCC(F)(F)F)C(O)C(O)C(=O)OCC(F)(F)F` (stereo not drawn), the melting point was in the range of 77 to 79 °C.

On to `CCCC(=O)Nc1cc(/C=C/C(=O)OC)n(C)c1`, for which the melting point lay in the range of 109 to 110 °C.

`CCCNC(=O)C(C)Cc1ccc2cccc(Cc3ccc(C(=O)NS(=O)(=O)c4ccccc4C)cc3OC)c2c1` (stereo not drawn) came in with a melting point of 210 to 212 °C.

In the case of `CCOc1c2ccccc2c(C=O)c2ccccc12`, the melting point lay within 88 to 90 °C.

In turn, `Cc1cc(NCc2ccccc2)c(N)c(Cl)n1` showed a melting point of 177 to 178 °C.

The molecule `Cn1c(=O)c(-c2c(Cl)cccc2Cl)cc2cnc(NCCCN3CCOCC3)nc21` had a melting point of 140 to 142 °C.

Molecule `O=C(NCCC[C@H]1OC[C@H](c2cccc3cc(OCC4CC4)ccc32)CO1)Oc1ccc(Cl)cc1` registered a melting point of 159 to 162 °C.

Take `O=C(O)C=CC(=O)Oc1ccc(Nc2ccccc2)cc1`: the melting point lay within 139 to 142 °C.

`COc1ccc2[nH]c3c(c2c1)CCC(NC(C)=O)C3` (stereo not drawn) returned a melting point of 191 to 193 °C.

The molecule `Cc1oc(-c2ccc(F)cc2)cc1C(C)O` (stereo not drawn) gave a melting point of 50 to 52 °C.

For the molecule `Nc1ncn(C[C@H](O)COC(c2ccccc2)(c2ccccc2)c2ccccc2)c(=O)n1`, the melting point was in the range of 130 to 132 °C.

On to `O=c1[nH]c2ccc3c(c2[nH]c1=O)CNCC3`, for which the melting point was in the range of 294 to 297 °C.

Consider `CNC(=O)c1ccc(Br)c2nsnc12`, for which the melting point lay within 156 to 160 °C.

For the molecule `CC(C)(C)c1cc(C=C2Sc3ccccc3N(CC(N)=O)C2=O)cc(C(C)(C)C)c1O`, the melting point fell in the range of 137 to 144 °C.

On to `O=C(NNC(=O)c1occ(-c2ccccc2)c1-c1ccccc1)c1ccc(O)c(C(F)(F)F)c1`, for which the melting point lay within 142 to 143 °C.

The molecule `N#CCCCCCC(=NOCCNC(c1ccccc1)(c1ccccc1)c1ccccc1)c1ccc(Cl)c(Cl)c1` had a melting point of 131 to 132 °C.

`NNc1c(S(=O)(=O)C(F)(F)F)cnn1-c1c(Cl)cc(C(F)(F)F)cc1Cl` displayed a melting point of 154 °C.

`CC(C)(C)c1ccc(-c2nc(COc3cccc4cc(NS(=O)(=O)C(F)(F)F)ccc34)cs2)cc1` yielded a melting point of 174 to 175 °C.

In the case of `C=Cc1ccc(CSC2C(=O)N(c3c(Cl)cc(Cl)cc3Cl)N=C2Nc2cc(NC(C)=O)ccc2Cl)cc1` (stereo not drawn), the melting point worked out at 240 °C.

The molecule `CCC(=O)OCC(=O)OC1C(CC)CC2C3CCC4=CC(=O)CCC4C3CCC21C` (stereo not drawn) yielded a melting point of 101 to 104 °C.

For the molecule `Cc1cc(-c2nc3cc(F)cc(F)c3c(=O)[nH]2)cc(C)c1OCCN1CCCC1`, the melting point was in the range of 234 to 235 °C.

As to `Nc1cccc2c1CN(c1nc3c(cc1F)c(=O)c(C(=O)O)cn3C1CC1)C2`, the melting point is above 300 °C.

In turn, `O=C1c2ccccc2C(=O)N1CCON=C1c2ccccc2-n2cccc21` returned a melting point of 195 °C.

As for `COCc1nc(C)c2c(n1)N(Cc1ccc(Br)cc1)C(=O)CC2`, the melting point lay within 64 to 66 °C.

Consider `CCCn1nc2c(N)nc3ccccc3c2c1CC(C)(C)NC(=O)C(C)C`, for which the melting point lay within 177 to 178 °C.

Regarding `N#CCCNC(=O)c1cccc(-c2cccc(Oc3cncc(Cl)c3)n2)c1`, the melting point lay within 143 to 144 °C.

The molecule `O=C(c1ccc(C(F)(F)F)cc1O)N1CCN(c2ccc(OC[C@H]3CCn4cc([N+](=O)[O-])nc4O3)cc2)CC1` yielded a melting point of 217 to 220 °C.

In turn, `O=c1ccc2cnccc2[nH]1` returned a melting point of 295 to 297 °C.

As to `CC(CS)C(=O)Nc1cc(C(=O)O)ccn1` (stereo not drawn), the melting point is 247 to 248 °C.

The molecule `CCCCCCCCCCCCCCN(C(=O)CCCCCCCCCCC)C1(N)OC(CO)C(O)C(O)C1C(=O)C(N)C(=O)CNC` (stereo not drawn) yielded a melting point of 116 °C.

`CCC(=O)CC(C(C(=O)CC)c1ccc([N+](=O)[O-])cc1)[N+](=O)[O-]` (stereo not drawn): the melting point is 61.5 to 65.6 °C.

Regarding `CCCCc1nc2ccccn2c(=O)c1-c1ccc(Cl)cc1C`, the melting point is 105 to 107 °C.

`CS(=O)(=O)c1ccc(-c2cnn(-c3ccc(F)c(F)c3)c(=O)c2-c2ccc(Cl)cc2)cc1` had a melting point of 187 to 188 °C.

The molecule `CS(=O)(=O)Nc1cc(OCCC(=O)O)ccc1Oc1ccccc1` gave a melting point of 145 to 149 °C.

As for `COc1ccc(-c2cc(=Nc3c(C)cc(C)cc3C)n(C)c(NN)n2)cc1OC`, the melting point is above 300 °C.

As for `COC(=O)C(C(=O)OC)c1cc(F)cc2c1C(=O)c1cc3ccccc3cc1C2=O`, the melting point is 225 to 230 °C.

With `CCN(CC)C(=O)c1cc2ccccc2c(-c2ccccc2)n1`, the melting point was 72 °C.

Molecule `CC(=O)NCc1ccc2ccn(C3CCN(CCc4ccc(Br)cc4)CC3)c2c1` gave a melting point of 140 to 141 °C.

With `CCCCN(Cc1ccc2cc(O)ccc2c1)C(=O)c1c(C)oc2ccccc12`, the melting point lay in the range of 126 to 128 °C.

`Cc1c[nH]c2c(=O)n(CC(=O)N[C@H](C=O)CC(=O)O)cnc12`: the melting point lay within 222 to 226 °C.

Take `COc1ccc(-c2coc3cc(OC(C)C)ccc3c2=O)cc1`: the melting point fell in the range of 245 to 246 °C.

As to `O=C(/C=C/c1ccccc1)Nc1ccccc1C(=O)O`, the melting point is 188 to 189 °C.

The molecule `CC(=O)Nc1ccc(Br)c2c1CN(C(C)=O)CC2` yielded a melting point of 127 to 130 °C.

Regarding `CC(=O)Nc1ccc(S(=O)(=O)N(C)c2ccc(O)cc2)cc1`, the melting point lay within 202 to 203 °C.

As for `O=C1C2CCCC2=Nc2ccc(Cl)cc2N1Cc1ccccc1` (stereo not drawn), the melting point is 134 to 136 °C.

Molecule `Cc1ccc(C(=O)Nc2c(NC(=O)CN3CCN(CCO)CC3)ccc3c2C(=O)c2ccccc2C3=O)cc1` displayed a melting point of 210 to 211 °C.

In the case of `CCCCC(=O)N(Cc1cccc(OC)c1)c1cc(F)cc(-c2nnn[nH]2)c1`, the melting point fell in the range of 118 to 120 °C.

Take `Cc1nc(-c2cc(Cc3ccccc3)no2)sc1C(=O)NCc1ccccc1`: the melting point fell in the range of 103 to 104 °C.

The molecule `CCCC(CCC)NC(=O)Nc1ccc(Cl)cc1` registered a melting point of 135 to 136 °C.

The molecule `O=C(O)c1ccc(C(=O)/C=C/c2cc(-c3cccs3)ccc2N2CCCC2)cc1` displayed a melting point of 208 to 209 °C.

`COc1cccc(C2C(=O)CCc3ccccc32)c1` (stereo not drawn): the melting point was 161 to 162 °C.

The molecule `Cn1c(=O)[nH]c(=O)c2c1ncn2Cc1noc(Cc2ccccc2)n1` displayed a melting point of 188 to 190 °C.

For the molecule `COC(=O)c1ccc(COc2ccc3cc(-c4csc(-c5ccccc5)n4)ccc3c2Br)cc1`, the melting point lay within 173 to 175 °C.

In the case of `CC(=O)Nc1c(C(C)=O)[nH]c2cc(Cl)ccc12`, the melting point was in the range of 262 to 267 °C.

`CCc1cc(Cc2cc(CC)c(N=C=O)c(CC)c2)cc(CC)c1N=C=O` yielded a melting point of 56 to 57 °C.

On to `c1cc(OCc2ccc3ccccc3n2)cc(OCc2ccccc2-c2nnn[nH]2)c1`, for which the melting point is 166 to 170 °C.

In the case of `Cc1cc(C)n(C(=O)C2c3ccccc3Oc3ccccc32)n1`, the melting point is 114 to 115 °C.

As for `COc1ccc(CN2C(=O)[C@H]([C@@H](C)O)[C@H]2[C@@H]2COC(C)(C)O2)c(OC)c1`, the melting point is 145 to 146 °C.

For the molecule `CN(CCC=C1c2ccccc2COc2ccccc21)CCCCCC(O)c1ccc(C(C)(C)C)cc1` (stereo not drawn), the melting point lay within 73 to 75 °C.

Regarding `CSc1nnc(-c2ccco2)s1`, the melting point stood at 128 °C.

In the case of `O=C(Nc1cccc2ncccc12)C(Cl)(Cl)Cl`, the melting point is 145 to 147 °C.

With `CCCCc1ccc(N2CCC(CCOc3ccc(C(=O)OCC)cc3)CC2)nn1`, the melting point amounted to 91.4 °C.
